Data as given in patent publication US20100267561A1, “HERBICIDAL PYRIDAZINONE DERIVATIVES” (priority 2007, published 2010).

How the values were obtained:
Type in all cases: in vivo
[1] = test system: rice (Oryza sativa); assay: Test B flooded paddy test plant response
Outline: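 2-leaf plants; pots flooded 3 cm above soil; compound added to paddy water; depth maintained. Greenhouse 13–15 d. Visual rating vs controls, 0 (no effect) to 100 (complete control); dash = no result.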

[2] = test system: green foxtail (Setaria viridis); assay: Test B pre-/postemergence plant response
Outline: (§1)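 Visual scoring from 0 (no effect) to 100 (complete control) against untreated controls was done 13 to 15 days after greenhouse treatment. Chemicals were formulated in a surfactant-containing non-phytotoxic solvent and applied to soil preemergence or to 1- to 4-leaf (2-18 cm) plants postemergence.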

[3] = test system: velvetleaf (Abutilon theophrasti); assay: Test B pre-/postemergence plant response
Outline: as §1

[4] = test system: woolly cupgrass (Eriochloa villosa); assay: Test B pre-/postemergence plant response
Outline: as §1

[5] = test system: common (oilseed) sunflower (Helianthus annuus); assay: Test B pre-/postemergence plant response; conditions: Preemergence; for Sunflower plant response rating: scale 0 to 100
Outline: as §1

[6] = test system: catchweed bedstraw (Galium aparine); assay: Test B pre-/postemergence plant response; conditions: Preemergence; for Galium plant response rating: scale 0 to 100
Outline: as §1

[7] = test system: soybean (Glycine max); assay: Test B pre-/postemergence plant response
Outline: as §1

[8] = test system: cocklebur (Xanthium strumarium); assay: Test B pre-/postemergence plant response; conditions: for Cocklebur plant response rating: 8 g ai/ha
Outline: as §1

[9] = test system: Russian thistle (Salsola iberica); assay: Test B pre-/postemergence plant response; conditions: Preemergence; for Russian Thistle plant response rating: scale 0 to 100
Outline: as §1

[10] = test system: pigweed (Amaranthus retroflexus); assay: Test B pre-/postemergence plant response
Outline: as §1

[11] = test system: wheat (Triticum aestivum); assay: Test B pre-/postemergence plant response
Outline: as §1

[12] = test system: goosegrass (Eleusine indica); assay: Test B pre-/postemergence plant response
Outline: as §1

[13] = test system: large crabgrass (Digitaria sanguinalis); assay: Test B pre-/postemergence plant response
Outline: as §1

[14] = test system: downy bromegrass (Bromus tectorum); assay: Test B pre-/postemergence plant response; conditions: for Bromegrass, Downy plant response rating: 8 g ai/ha
Outline: as §1

[15] = 8 g ai/ha, postemergence, 0-100 scale
[16] = Postemergence, 16 g ai/ha, scale 0 to 100
[17] = Postemergence, 31 g ai/ha, scale 0 to 100
[18] = Postemergence, 62 g ai/ha, scale 0 to 100, 0 no effect, 100 complete control
[19] = Preemergence, 31 g ai/ha, scale 0 to 100 (0 no effect, 100 complete control)
[20] = Preemergence, 62 g ai/ha, 0 to 100 scale, 0 no effect, 100 complete control
[21] = Preemergence, 8 g ai/ha, scale 0 to 100
[22] = Preemergence, 16 g ai/ha, scale 0 to 100
[23] = 31 g ai/ha, scale 0 to 100 (0 no effect, 100 complete control)
[24] = 62 g ai/ha, 0 to 100 scale, 0 no effect, 100 complete control
[25] = Preemergence, 16 g ai/ha, scale 0 to 100 (0 no effect, 100 complete control)

CCCC(=O)Oc1cnn(C)c(=O)c1-n1nc(-c2ccc(Cl)cc2)cc1C [Compound 56]
Plant response rating, Rice ([1]; Flood (flooded paddy test), 62 g ai/ha, scale 0 to 100, 0 no effect, 100 complete control): 0
Plant response rating, Rice ([1]; Flood (flooded paddy test), 125 g ai/ha, scale 0 to 100, 0 no effect, 100 complete control): 0
Plant response rating, Rice ([1]; Flood (flooded paddy test), 250 g ai/ha, scale 0 to 100, 0 no effect, 100 complete control): 10
Plant response rating, Rice ([1]; Flood, 31 g ai/ha, scale 0 to 100): 0
Foxtail, Green plant response rating [2, 15]: 50
Plant response rating, Foxtail, Green [2, 16]: 90
Plant response rating, Foxtail, Green [2, 17]: 90
Plant response rating, Foxtail, Green [2, 18]: 100
Plant response rating, Foxtail, Green [2, 19]: 100
Plant response rating, Foxtail, Green [2, 20]: 100
Foxtail, Green plant response rating [2, 21]: 65
Foxtail, Green plant response rating [2, 22]: 65
Velvetleaf plant response rating [3, 15]: 0
Plant response rating, Velvetleaf [3, 16]: 0
Plant response rating, Velvetleaf [3, 17]: 0
Plant response rating, Velvetleaf [3, 18]: 0
Plant response rating, Velvetleaf [3, 19]: 0
Plant response rating, Velvetleaf [3, 20]: 0
Velvetleaf plant response rating [3, 21]: 0
Velvetleaf plant response rating [3, 22]: 0
Cupgrass, Woolly plant response rating [4, 15]: 95
Plant response rating, Cupgrass, Woolly [4, 16]: 100
Plant response rating, Cupgrass, Woolly [4, 17]: 100
Plant response rating, Cupgrass, Woolly [4, 18]: 100
Plant response rating, Cupgrass, Woolly [4, 19]: 100
Plant response rating, Cupgrass, Woolly [4, 20]: 100
Cupgrass, Woolly plant response rating [4, 21]: 0
Cupgrass, Woolly plant response rating [4, 22]: 80
Plant response rating, Sunflower [5, 23]: 0
Plant response rating, Sunflower [5, 24]: 0
Sunflower plant response rating ([5]; 8 g ai/ha): 0
Sunflower plant response rating ([5]; 16 g ai/ha): 0
Plant response rating, Galium [6, 23]: 0
Plant response rating, Galium [6, 24]: 0
Galium plant response rating ([6]; 8 g ai/ha): 0
Galium plant response rating ([6]; 16 g ai/ha): 0
Soybean plant response rating [7, 15]: 0
Plant response rating, Soybean [7, 16]: 0
Plant response rating, Soybean [7, 17]: 0
Plant response rating, Soybean [7, 18]: 0
Plant response rating, Soybean [7, 20]: 0
Soybean plant response rating [7, 21]: 0
Soybean plant response rating [7, 22]: 0
Cocklebur plant response rating ([8]; postemergence, 0-100 scale): 0
Plant response rating, Cocklebur [8, 16]: 0
Plant response rating, Cocklebur [8, 17]: 0
Plant response rating, Cocklebur [8, 18]: 0
Plant response rating, Cocklebur [8, 25]: 0
Plant response rating, Cocklebur [8, 19]: 0
Plant response rating, Cocklebur [8, 20]: 0
Cocklebur plant response rating ([8]; Preemergence, scale 0 to 100): 0
Plant response rating, Russian Thistle [9, 23]: 0
Plant response rating, Russian Thistle [9, 24]: 0
Russian Thistle plant response rating ([9]; 8 g ai/ha): 0
Russian Thistle plant response rating ([9]; 16 g ai/ha): 0
Pigweed plant response rating [10, 15]: 0
Plant response rating, Pigweed [10, 16]: 0
Plant response rating, Pigweed [10, 17]: 0
Plant response rating, Pigweed [10, 18]: 0
Plant response rating, Pigweed [10, 19]: 0
Plant response rating, Pigweed [10, 20]: 0
Pigweed plant response rating [10, 21]: 0
Pigweed plant response rating [10, 22]: 0
Wheat plant response rating [11, 15]: 5
Plant response rating, Wheat [11, 16]: 65
Plant response rating, Wheat [11, 17]: 80
Plant response rating, Wheat [11, 18]: 90
Plant response rating, Wheat [11, 19]: 35
Plant response rating, Wheat [11, 20]: 80
Wheat plant response rating [11, 22]: 10
Goosegrass plant response rating [12, 15]: 60
Plant response rating, Goosegrass [12, 16]: 65
Plant response rating, Goosegrass [12, 17]: 75
Plant response rating, Goosegrass [12, 18]: 98
Plant response rating, Goosegrass [12, 19]: 98
Plant response rating, Goosegrass [12, 20]: 100
Goosegrass plant response rating [12, 21]: 75
Goosegrass plant response rating [12, 22]: 80
Crabgrass, Large plant response rating [13, 15]: 65
Plant response rating, Crabgrass, Large [13, 16]: 85
Plant response rating, Crabgrass, Large [13, 17]: 95
Plant response rating, Crabgrass, Large [13, 18]: 100
Plant response rating, Crabgrass, Large [13, 19]: 100
Plant response rating, Crabgrass, Large [13, 20]: 100
Crabgrass, Large plant response rating [13, 21]: 0
Crabgrass, Large plant response rating [13, 22]: 60
Bromegrass, Downy plant response rating ([14]; postemergence, 0-100 scale): 0
Plant response rating, Bromegrass, Downy [14, 16]: 0
Plant response rating, Bromegrass, Downy [14, 17]: 0
Plant response rating, Bromegrass, Downy [14, 18]: 0
Plant response rating, Bromegrass, Downy [14, 25]: 20
Plant response rating, Bromegrass, Downy [14, 19]: 45
Plant response rating, Bromegrass, Downy [14, 20]: 75
Bromegrass, Downy plant response rating ([14]; Preemergence, scale 0 to 100): 0
